In the OligoGym collection:
Oligonucleotides are written 5' to 3', each unit as a sugar letter and its base; * is a phosphorothioate linkage, no mark a phosphodiester; rarer units and linkages stand in square brackets, end groups in braces. Plain capitals give the bases only. d = 2'-deoxy (DNA); r = 2'-OH (RNA)

These substances were tested against DENND5A (assay: reporter assay of Huesken 2005). Conditions: siRNA.
Also: test concentration or dose not given here.

Row | Substance | normalised inhibition (eCFP-eYFP dual reporter) [%]
1 | sense rArUrUrUrGrGrGrUrUrUrGrCrCrCrUrCrArCrAdTdT / antisense rUrGrUrGrArGrGrGrCrArArArCrCrCrArArArUdGdT | 72.2
2 | sense rCrArArGrArUrCrArGrGrCrUrGrUrUrGrArArUdTdT / antisense rArUrUrCrArArCrArGrCrCrUrGrArUrCrUrUrGdTdC | 55.7
3 | sense rCrArCrArUrGrCrArCrArArUrGrCrUrGrArGrUdTdT / antisense rArCrUrCrArGrCrArUrUrGrUrGrCrArUrGrUrGdGdT | 69.6
4 | sense rCrArCrCrUrArCrUrCrUrCrCrGrUrArCrArUrCdTdT / antisense rGrArUrGrUrArCrGrGrArGrArGrUrArGrGrUrGdTdC | 54.7
5 | sense rCrArGrArUrCrUrGrCrArGrUrGrCrArArUrGrCdTdT / antisense rGrCrArUrUrGrCrArCrUrGrCrArGrArUrCrUrGdCdT | 56.3
6 | sense rCrArGrArUrGrUrUrUrGrCrArUrCrUrUrUrCrAdTdT / antisense rUrGrArArArGrArUrGrCrArArArCrArUrCrUrGdGdG | 75.3
7 | sense rCrArGrCrGrCrUrUrCrArArCrUrCrCrUrArUrGdTdT / antisense rCrArUrArGrGrArGrUrUrGrArArGrCrGrCrUrGdCdA | 49.9
8 | sense rCrArGrGrArUrArUrGrArGrGrCrArCrArUrCrCdTdT / antisense rGrGrArUrGrUrGrCrCrUrCrArUrArUrCrCrUrGdAdA | 46.7
9 | sense rCrArGrGrGrArGrCrArArArUrGrCrArArArArCdTdT / antisense rGrUrUrUrUrGrCrArUrUrUrGrCrUrCrCrCrUrGdTdT | 67.9
10 | sense rCrArGrUrUrCrCrCrCrArArCrArArArUrUrGrGdTdT / antisense rCrCrArArUrUrUrGrUrUrGrGrGrGrArArCrUrGdTdG | 67.9
11 | sense rCrArUrGrUrCrGrGrArGrCrGrUrGrCrUrGrGrAdTdT / antisense rUrCrCrArGrCrArCrGrCrUrCrCrGrArCrArUrGdCdC | 60.8
12 | sense rCrArUrUrCrArGrArUrCrCrGrGrGrArArGrUrUdTdT / antisense rArArCrUrUrCrCrCrGrGrArUrCrUrGrArArUrGdTdT | 74.7
13 | sense rCrCrArGrArGrGrGrArGrArArGrUrArCrArUrCdTdT / antisense rGrArUrGrUrArCrUrUrCrUrCrCrCrUrCrUrGrGdTdC | 34.5
14 | sense rCrCrArGrCrCrUrUrUrGrUrGrArUrCrUrCrCrUdTdT / antisense rArGrGrArGrArUrCrArCrArArArGrGrCrUrGrGdCdA | 47.1
15 | sense rCrCrArGrCrUrCrArCrUrCrArUrGrCrCrUrCrCdTdT / antisense rGrGrArGrGrCrArUrGrArGrUrGrArGrCrUrGrGdCdA | 64.4
16 | sense rCrCrArUrGrCrCrUrUrUrArUrUrArUrCrArCrAdTdT / antisense rUrGrUrGrArUrArArUrArArArGrGrCrArUrGrGdAdA | 72.5
17 | sense rCrCrCrCrGrCrCrGrCrUrGrCrArGrCrArGrUrCdTdT / antisense rGrArCrUrGrCrUrGrCrArGrCrGrGrCrGrGrGrGdTdC | 61.8
18 | sense rCrCrUrCrUrArCrCrArCrArUrGrCrArCrArArUdTdT / antisense rArUrUrGrUrGrCrArUrGrUrGrGrUrArGrArGrGdGdT | 68.3
19 | sense rCrCrUrUrArUrGrGrUrCrCrCrArCrCrUrGrUrUdTdT / antisense rArArCrArGrGrUrGrGrGrArCrCrArUrArArGrGdCdT | 62.5

Row | Substance | normalised inhibition (eCFP-eYFP dual reporter) [%]
20 | sense rCrUrArUrCrArCrCrUrCrCrUrGrUrCrUrUrUrCdTdT / antisense rGrArArArGrArCrArGrGrArGrGrUrGrArUrArGdAdG | 63.1
21 | sense rCrUrCrArArGrArGrGrCrUrArArCrCrUrCrUrGdTdT / antisense rCrArGrArGrGrUrUrArGrCrCrUrCrUrUrGrArGdGdC | 52.3
22 | sense rCrUrCrArArGrArUrUrCrCrUrGrGrArGrArCrCdTdT / antisense rGrGrUrCrUrCrCrArGrGrArArUrCrUrUrGrArGdAdG | 64.6
23 | sense rCrUrCrCrUrGrUrGrArCrCrArArArCrUrGrCrAdTdT / antisense rUrGrCrArGrUrUrUrGrGrUrCrArCrArGrGrArGdTdG | 80.5
24 | sense rCrUrCrUrArCrGrUrCrUrCrUrArArGrUrGrCrAdTdT / antisense rUrGrCrArCrUrUrArGrArGrArCrGrUrArGrArGdAdG | 68.3
25 | sense rCrUrGrArGrGrArUrCrUrCrCrCrUrGrArUrUrCdTdT / antisense rGrArArUrCrArGrGrGrArGrArUrCrCrUrCrArGdGdG | 60.6
26 | sense rCrUrGrArUrCrGrUrArCrCrArArGrCrArArGrAdTdT / antisense rUrCrUrUrGrCrUrUrGrGrUrArCrGrArUrCrArGdAdA | 54.7
27 | sense rCrUrGrGrArUrUrGrCrCrCrUrGrCrUrGrGrCrUdTdT / antisense rArGrCrCrArGrCrArGrGrGrCrArArUrCrCrArGdTdG | 63.7
28 | sense rCrUrGrUrCrGrGrCrArUrUrArUrGrCrCrArGrUdTdT / antisense rArCrUrGrGrCrArUrArArUrGrCrCrGrArCrArGdCdT | 73
29 | sense rCrUrGrUrCrUrUrUrCrArArUrGrCrCrGrUrCrGdTdT / antisense rCrGrArCrGrGrCrArUrUrGrArArArGrArCrArGdGdA | 47.4
30 | sense rCrUrUrCrUrArArArGrCrCrArGrGrGrArUrGrGdTdT / antisense rCrCrArUrCrCrCrUrGrGrCrUrUrUrArGrArArGdCdC | 46.4
31 | sense rCrUrUrGrArGrArGrCrUrArCrArUrArUrArCrAdTdT / antisense rUrGrUrArUrArUrGrUrArGrCrUrCrUrCrArArGdGdG | 74.2
32 | sense rCrUrUrGrCrCrArCrArGrUrUrCrCrCrCrArArCdTdT / antisense rGrUrUrGrGrGrGrArArCrUrGrUrGrGrCrArArGdTdC | 50.6
33 | sense rCrUrUrUrCrArArUrGrCrCrGrUrCrGrArUrUrAdTdT / antisense rUrArArUrCrGrArCrGrGrCrArUrUrGrArArArGdAdC | 76.8
34 | sense rCrUrUrUrGrUrGrArUrCrUrCrCrUrGrGrArArAdTdT / antisense rUrUrUrCrCrArGrGrArGrArUrCrArCrArArArGdGdC | 65.8
35 | sense rGrArArUrGrGrGrArArCrArUrUrGrCrUrGrGrCdTdT / antisense rGrCrCrArGrCrArArUrGrUrUrCrCrCrArUrUrCdCdT | 45.3
36 | sense rGrArCrCrCrArGrArUrGrUrUrUrGrCrArUrCrUdTdT / antisense rArGrArUrGrCrArArArCrArUrCrUrGrGrGrUrCdTdC | 71.9
37 | sense rGrArCrUrGrArArGrGrArGrArArArArUrUrUrUdTdT / antisense rArArArArUrUrUrUrCrUrCrCrUrUrCrArGrUrCdGdT | 90.8
